The target in series [1] is T1, Amylin receptor AMY3; CALCR/RAMP3 (Homo sapiens, UniProt O60896+P30988).
T1 sequence (P30988 whole entry): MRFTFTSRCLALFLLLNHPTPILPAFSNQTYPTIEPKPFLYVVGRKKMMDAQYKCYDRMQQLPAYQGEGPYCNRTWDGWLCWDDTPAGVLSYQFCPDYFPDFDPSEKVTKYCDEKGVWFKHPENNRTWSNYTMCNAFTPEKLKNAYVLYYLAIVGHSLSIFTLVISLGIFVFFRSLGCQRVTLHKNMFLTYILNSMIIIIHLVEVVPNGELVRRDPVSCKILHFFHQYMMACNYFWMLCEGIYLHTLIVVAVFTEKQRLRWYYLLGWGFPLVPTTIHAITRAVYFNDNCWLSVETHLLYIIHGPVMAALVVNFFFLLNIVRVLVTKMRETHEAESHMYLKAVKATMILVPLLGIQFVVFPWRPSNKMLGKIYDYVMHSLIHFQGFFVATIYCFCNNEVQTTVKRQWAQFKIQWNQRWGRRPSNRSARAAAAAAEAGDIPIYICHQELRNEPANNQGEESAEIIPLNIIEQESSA
T1 sequence (O60896 whole entry): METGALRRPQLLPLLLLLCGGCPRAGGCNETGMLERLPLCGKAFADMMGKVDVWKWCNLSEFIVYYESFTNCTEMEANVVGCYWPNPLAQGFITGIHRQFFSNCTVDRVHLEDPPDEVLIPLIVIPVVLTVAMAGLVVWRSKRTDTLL
Briefly: Displacement of [125I]-labeled rat amylin from human amylin receptor expressed in BHK570 cell membranes co-expressing RAMP3 incubated for 120 mins by scintillation proximity assay.

Series [2] can be described thus: Solubility in 100 mM bistrispropane buffer at pH 6.5 incubated for 18 hrs by UPLC analysis. Format: physicochemical.
Series [3] can be described thus: Solubility in 100 mM glycylglycine buffer at pH 3.0 incubated for 18 hrs by UPLC analysis. In kind it is physicochemical.
Series [4] can be described thus: Solubility in 100 mM bistrispropane buffer at pH 6.0 incubated for 18 hrs by UPLC analysis. Format: physicochemical.
Series [5] is described as follows: Solubility in 100 mM glycylglycine buffer at pH 5.0 incubated for 18 hrs by UPLC analysis. In kind it is physicochemical.
Series [6] concerns the target T1, Amylin receptor AMY3; CALCR/RAMP3. Briefly: Agonist activity at human amylin receptor expressed in BHK570 cells co-expressing RAMP3 assessed as increase in intracellular cAMP concentration incubated for 3 hrs in absence of albumin by CRE luciferase reporter gene assay. In kind it is functional, cell-based.
Series [7] is described as follows: Solubility in 100 mM bistrispropane buffer at pH 7.0 incubated for 18 hrs by UPLC analysis. In kind it is physicochemical.
Series [8] deals with T2, Calcitonin receptor (Homo sapiens, UniProt P30988).
T2 sequence (P30988 whole entry): T1 sequence (P30988 whole entry)
Nature of the series: Displacement of [125I]-labeled human calcitonin from human calcitonin receptor expressed in BHK tkts13 cell membranes incubated for 1 hr by scintillation proximity assay.

For series [9], the target named is T2, Calcitonin receptor. Nature of the series: Agonist activity at human calcitonin receptor expressed in BHK570 cells assessed as increase in intracellular cAMP concentration incubated for 3 hrs in absence of albumin by CRE luciferase reporter gene assay. Format: functional, cell-based.
In series [10] the target is T1, Amylin receptor AMY3; CALCR/RAMP3. Nature of the series: Agonist activity at human amylin receptor expressed in BHK570 cells co-expressing RAMP3 assessed as increase in intracellular cAMP concentration incubated for 3 hrs in presence of 10% FBS by CRE luciferase reporter gene assay. Format: functional, cell-based.
The target in series [11] is T2, Calcitonin receptor. Nature of the series: Agonist activity at human calcitonin receptor expressed in BHK570 cells assessed as increase in intracellular cAMP concentration incubated for 3 hrs in presence of 10% FBS by CRE luciferase reporter gene assay. In kind it is functional, cell-based.
A short description of series [12]: Solubility in 100 mM bistrispropane buffer at pH 8.0 incubated for 18 hrs by UPLC analysis. In kind it is physicochemical.
The nature of series [13]: Solubility in 100 mM bistrispropane buffer at pH 7.5 incubated for 18 hrs by UPLC analysis. In kind it is physicochemical.
Series [14] addresses T3, Amylin receptor AMY3; CALCR/RAMP3 (Rattus norvegicus, UniProt P32214+Q9JJ73).
T3 sequence (P32214 whole entry): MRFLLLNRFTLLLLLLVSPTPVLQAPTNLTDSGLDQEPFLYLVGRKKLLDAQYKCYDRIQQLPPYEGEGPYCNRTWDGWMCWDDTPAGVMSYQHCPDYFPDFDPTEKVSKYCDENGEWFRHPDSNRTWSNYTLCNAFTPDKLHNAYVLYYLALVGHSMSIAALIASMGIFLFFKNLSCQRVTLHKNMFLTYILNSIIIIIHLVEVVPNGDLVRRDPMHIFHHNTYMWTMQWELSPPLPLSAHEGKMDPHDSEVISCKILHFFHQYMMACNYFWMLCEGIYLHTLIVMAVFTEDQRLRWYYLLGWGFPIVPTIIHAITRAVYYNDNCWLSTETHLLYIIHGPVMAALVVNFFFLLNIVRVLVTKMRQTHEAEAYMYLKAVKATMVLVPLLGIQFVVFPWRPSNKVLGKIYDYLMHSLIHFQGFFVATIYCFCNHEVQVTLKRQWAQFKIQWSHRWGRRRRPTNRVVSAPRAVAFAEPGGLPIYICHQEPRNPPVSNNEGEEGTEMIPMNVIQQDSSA
T3 sequence (Q9JJ73 whole entry): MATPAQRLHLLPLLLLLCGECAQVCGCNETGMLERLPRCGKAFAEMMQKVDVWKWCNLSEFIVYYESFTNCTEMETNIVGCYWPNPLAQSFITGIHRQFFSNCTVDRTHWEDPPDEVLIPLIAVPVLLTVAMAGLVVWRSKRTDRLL
Nature of the series: Displacement of [125I]-labeled rat amylin from rat amylin receptor expressed in BHK tkts13 cell membranes co-expressing RAMP3 incubated for 120 mins by scintillation proximity assay.

Series [15] is described as follows: Solubility in 100 mM glycylglycine buffer at pH 4.0 incubated for 18 hrs by UPLC analysis. Format: physicochemical.
The target in series [16] is T1, Amylin receptor AMY3; CALCR/RAMP3. Briefly: Displacement of [125I]-labeled rat amylin from human amylin receptor expressed in BHK tkts13 whole cells co-expressing RAMP3 incubated for 60 mins by scintillation proximity assay. Format: cell-based.
For series [17], the system named is Rattus norvegicus. Briefly: Reduction in food intake in Sprague-Dawley rat at 3 nmol/kg measured 24 to 48 hrs post dose relative to control. The arrangement: scale not given: the % may be the effect or the level left. Format: functional.
Series [18] deals with Rattus norvegicus. Briefly: Reduction in food intake in Sprague-Dawley rat at 3 nmol/kg measured 0 to 24 hrs post dose relative to control. Format: functional. The arrangement: scale not given: the % may be the effect or the level left.

Numbered stars: 1 amine (or outer) side, 2 acyl side, 3 side chain; on linkers, the order of the positions; unused ones are H or OH. Side chains are listed from the residue outwards. Peptide text beside a SMILES is read from it. * marks the point of attachment. C20 diacid = O=C(O)CCCCCCCCCCCCCCCCCCC(=O)*; γGlu = O=C(O)[C@H](CCC(=O)[*:2])N[*:1] Bounds are passed on as bounds.

On to `CC(=O)N[C@@H](C)C(=O)N[C@@H](CO)C(=O)N[C@@H](CCC(=O)O)C(=O)N[C@@H](CC(C)C)C(=O)N[C@@H](CO)C(=O)N[C@H](C(=O)N[C@@H](C)C(=O)N[C@@H](C)C(=O)N[C@@H](CC(C)C)C(=O)NCC(=O)N[C@@H](CCCNC(=N)N)C(=O)N[C@@H](CC(C)C)C(=O)N[C@@H](CO)C(=O)N[C@@H](C)C(=O)N[C@@H](CCCCNC(=O)CC[C@H](NC(=O)CCCCCCCCCCCCCCCCCCC(=O)O)C(=O)O)C(=O)N[C@@H](CC(C)C)C(=O)N[C@@H](Cc1cnc[nH]1)C(=O)N[C@@H](CCC(=O)O)C(=O)N[C@@H](CC(C)C)C(=O)N[C@@H](C)C(=O)N[C@H](C(=O)N[C@@H](CC(C)C)C(=O)N1CCC[C@H]1C(=O)N[C@@H](CCCNC(=N)N)C(=O)N[C@H](C(=O)N[C@@H](CCC(=O)O)C(=O)N[C@H](C(=O)NCC(=O)N[C@@H](CO)C(=O)NCC(=O)N[C@@H](CO)C(=O)N1CCC[C@H]1C(N)=O)[C@@H](C)O)[C@@H](C)O)[C@@H](C)O)[C@@H](C)O` (Ac-ASELSTAALGRLSAK([γGlu-C20 diacid])LHELATLPRTETGSGSP-NH2), for which the IC50 was 0.074 nM in [1], 0.046 nM in [8] and 0.115 nM in [14]. Moreover, the solubility at 18 h in [2], in series [3], in series [4], in series [5], in series [7] and in series [12] was not below 200 µM each time. Further, the solubility at 18 h in series [13] and in series [15] was not below 200 µM in each case. For the same compound, the EC50 is 0.021 nM in series [6], 0.028 nM in series [9], 0.1 nM in [10] and 0.044 nM in series [11].
Turning to `CC(C)C[C@H](NC(=O)[C@H](C)NC(=O)[C@H](C)NC(=O)[C@@H](NC(=O)[C@H](CO)NC(=O)[C@H](CC(C)C)NC(=O)[C@H](CCC(=O)O)NC(=O)[C@H](CO)NC(=O)[C@H](C)NC(=O)CC[C@H](NC(=O)CCCCCCCCCCCCCCCCCCC(=O)O)C(=O)O)[C@@H](C)O)C(=O)NCC(=O)N[C@@H](CCCNC(=N)N)C(=O)N[C@@H](CC(C)C)C(=O)N[C@@H](CO)C(=O)N[C@@H](C)C(=O)N[C@@H](CCC(=O)O)C(=O)N[C@@H](CC(C)C)C(=O)N[C@@H](Cc1cnc[nH]1)C(=O)N[C@@H](CCC(=O)O)C(=O)N[C@@H](CC(C)C)C(=O)N[C@@H](C)C(=O)N[C@H](C(=O)N[C@@H](Cc1ccc(O)cc1)C(=O)N1CCC[C@H]1C(=O)N[C@@H](CCCNC(=N)N)C(=O)N[C@H](C(=O)N[C@@H](CCC(=O)O)C(=O)N[C@H](C(=O)NCC(=O)N[C@@H](CO)C(=O)NCC(=O)N[C@@H](C)C(=O)N1CCC[C@H]1C(N)=O)[C@@H](C)O)[C@@H](C)O)[C@@H](C)O` ({C20 diacid-γGlu}-ASELSTAALGRLSAELHELATYPRTETGSGAP-NH2), the IC50 in series [1] was 0.141 nM; in series [8], 0.102 nM; in series [16], 2.02 nM; in [14] it was 0.026 nM. Moreover, the solubility at 18 h in series [2], in [3], in [4], in series [5], in [7] and in series [12] was not below 200 µM each time. Besides, the solubility at 18 h in series [13] and in series [15] was not below 200 µM each time. Moreover, the EC50 was 0.041 nM in [9], 0.1 nM in [10] and 0.037 nM in [11].
On to `CC(C)C[C@H](NC(=O)CNC(=O)[C@H](CO)NC(=O)[C@H](C)NC(=O)CC[C@H](NC(=O)CCCCCCCCCCCCCCCCCCC(=O)O)C(=O)O)C(=O)N[C@@H](CO)C(=O)N[C@H](C(=O)N[C@@H](C)C(=O)N[C@@H](C)C(=O)N[C@@H](CC(C)C)C(=O)NCC(=O)N[C@@H](CCCNC(=N)N)C(=O)N[C@@H](CC(C)C)C(=O)N[C@@H](CO)C(=O)N[C@@H](CCC(N)=O)C(=O)N[C@@H](CCC(=O)O)C(=O)N[C@@H](CC(C)C)C(=O)N[C@@H](Cc1cnc[nH]1)C(=O)N[C@@H](CCC(=O)O)C(=O)N[C@@H](CC(C)C)C(=O)N[C@@H](CCC(N)=O)C(=O)N[C@H](C(=O)N[C@@H](Cc1ccc(O)cc1)C(=O)N1CCC[C@H]1C(=O)N[C@@H](Cc1cnc[nH]1)C(=O)N[C@H](C(=O)N[C@@H](CCC(=O)O)C(=O)N[C@H](C(=O)NCC(=O)N[C@@H](CO)C(=O)NCC(=O)N[C@H](C(=O)N[C@@H](Cc1ccc(O)cc1)C(N)=O)[C@@H](C)O)[C@@H](C)O)[C@@H](C)O)[C@@H](C)O)[C@@H](C)O` ({C20 diacid-γGlu}-ASGLSTAALGRLSQELHELQTYPHTETGSGTY-NH2), for which the IC50 is 0.166 nM in [1], 0.15 nM in series [8], 0.142 nM in [16] and 0.026 nM in [14]. Further, the solubility at 18 h in series [2], in series [3], in [4], in series [7], in series [12] and in series [13] was not below 200 µM in each case. Besides, the solubility at 18 h in series [15] is not below 200 µM. Further, the results for the EC50 in series [6], in series [9] and in series [11] were 0.041 nM, 0.027 nM and 0.099 nM, respectively. In addition, the Activity was found to be 14% in series [17] and 20% in series [18].
